What was measured:
human B1R = target: T1, human B1R (Homo sapiens, UniProt P46663); assay: FLIPR Ca2+ influx assay, B1R antagonism, human (hB1R CHO K1 cells); type: cell-based; conditions: test substance 10 μM; CHO K1 cells stably transfected with human B1R; agonist Lys-Des-Arg9-bradykinin at EC80; % inhibition compared with maximum achievable inhibition; read-out: B1R antagonism, human [10 μM] % inhibition
T1 construct: expressed in transfected cells; host or cells: CHO K1 cells (hB1R cells)
T1 sequence (P46663 1-353): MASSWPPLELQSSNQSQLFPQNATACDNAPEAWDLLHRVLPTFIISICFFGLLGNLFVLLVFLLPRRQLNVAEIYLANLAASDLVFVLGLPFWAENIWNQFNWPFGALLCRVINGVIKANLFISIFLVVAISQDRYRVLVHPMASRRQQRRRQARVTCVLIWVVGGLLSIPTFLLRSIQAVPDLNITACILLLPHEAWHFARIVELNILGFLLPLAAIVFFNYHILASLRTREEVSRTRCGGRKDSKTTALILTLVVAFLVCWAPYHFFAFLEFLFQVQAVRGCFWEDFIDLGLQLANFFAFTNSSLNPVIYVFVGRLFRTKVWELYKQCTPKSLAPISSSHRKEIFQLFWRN
Description: The agonistic or antagonistic action of substances can be quantified on the bradykinin receptor 1 (B1R) of the species human and rat using ectopically expressing cell lines (CHO K1 cells) and with the aid of a Ca^2+-sensitive dye (Fluo-4) using a fluorescent imaging plate reader (FLIPR). The indication in % activation is based on the Ca^2+ signal after addition of Lys-Des-Arg^9-bradykinin (0.5 nM) or Des-Arg^9-bradykinin (100 nM). Antagonists lead to suppression of the Ca^2+ influx after the addition of the agonist. % Inhibition compared with the maximum achievable inhibition is indicated.
The agonistic or antagonistic action of substances can be determined on the bradykinin receptor 1 (B1R) of the species human and rat using the following assay. According to this assay, the Ca^2+ influx through the channel is quantified with the aid of a Ca^2+-sensitive dye (Fluo-4 type, Molecular Probes Europe BV, Leiden, Netherlands) using a Fluorescent Imaging Plate Reader (FLIPR, Molecular Devices, Sunnyvale, USA).
Chinese hamster ovary cells (CHO K1 cells) which have been stably transfected with the human B1R gene (hB1R cells) or with the B1R gene of the rat (rB1R cells) are used. For functional studies, the cells are plated out on black 96-well plates having a clear base (BD Biosciences, Heidelberg, Germany or Greiner, Frickenhausen, Germany) in a density of 20,000-35,000 cells/well. The cells are incubated overnight at 37° C. and with 5% CO2 in culture medium (hB1R cells: Nutrient Mixture Ham's F12, Gibco Invitrogen GmbH, Karlsruhe, Germany or DMEM, Sigma-Aldrich, Taufkirchen, Germany; rB1R cells: D-MEM/F12, Gibco Invitrogen GmbH, Karlsruhe, Germany), with 10 vol. % FBS (fetal bovine serum, Gibco Invitrogen GmbH, Karlsruhe, Germany or PAN Biotech GmbH, Aidenbach, Germany).
On the following day, the cells are loaded for 60 minutes at 37° C. with 2.13 μM Fluo-4 (Molecular Probes Europe BV, Leiden, Netherlands) in HBSS buffer (Hank's buffered saline solution, Gibco Invitrogen GmbH, Karlsruhe, Germany) […] (Sigma-Aldrich, Taufkirchen, Germany) and 10 mM HEPES (Sigma-Aldrich, Taufkirchen, Germany). The plates are then washed twice with HBSS buffer, and HBSS buffer additionally containing 0.1% BSA (bovine serum albumin; Sigma-Aldrich, Taufkirchen, Germany), 5.6 mM glucose and 0.05% gelatin (Merck KGaA, Darmstadt, Germany) is added to the plates. After incubation for a further 20 minutes at room temperature, the plates are inserted into the FLIPR for Ca^2+ measurement.
Alternatively, washing is carried out with buffer A (15 mM HEPES, 80 mM NaCl, 5 mM KCl, 1.2 mM CaCl2, 0.7 mM MgSO4, 2 g/l glucose, 2.5 mM probenecid) followed by loading with buffer A with added 2.5 μM Fluo-4 and 0.025% Pluronic F127 (Sigma-Aldrich, Taufkirchen, Germany). The cells are then washed twice with buffer A and incubated for 30 minutes at room temperature with buffer A additionally containing 0.05% BSA and 0.05% gelatin and are then inserted into the FLIPR for Ca^2+ measurement.
The Ca^2+-dependent fluorescence is measured before and after the addition of substances (λex=488 nm, λem=540 nm). Quantification is carried out by measuring the highest fluorescence intensity (FC, fluorescence counts) over time.
The FLIPR protocol consists of two substance additions. Test substances (10 μM) are first pipetted onto the cells and the Ca^2+ influx is compared with the control (hB1R: Lys-Des-Arg^9-bradykinin >=50 nM; rB1R: Des-Arg^9-bradykinin 10 μM). This gives the activation in %, based on the Ca^2+ signal after addition of Lys-Des-Arg^9-bradykinin (>=50 nM) or Des-Arg^9-bradykinin (10 μM). After 10-20 minutes' incubation, Lys-Des-Arg^9-bradykinin (hB1R) or Des-Arg^9-bradykinin (rB1R) is applied in the concentration of the EC80, and the influx of Ca^2+ is likewise determined. Antagonists lead to suppression of the Ca^2+ influx. The % inhibition compared with the maximum achievable inhibition is calculated. […]

B1R of the rat = target: T2, B1R of the rat (Rattus norvegicus, UniProt P97583); assay: FLIPR Ca2+ influx assay, B1R antagonism, rat (rB1R CHO K1 cells); type: cell-based; conditions: test substance 10 μM; CHO K1 cells stably transfected with rat B1R; agonist Des-Arg9-bradykinin at EC80; % inhibition compared with maximum achievable inhibition; read-out: B1R antagonism, rat [10 μM] % inhibition
T2 construct: expressed in transfected cells; host or cells: CHO K1 cells (rB1R cells)
T2 sequence (P97583 1-337): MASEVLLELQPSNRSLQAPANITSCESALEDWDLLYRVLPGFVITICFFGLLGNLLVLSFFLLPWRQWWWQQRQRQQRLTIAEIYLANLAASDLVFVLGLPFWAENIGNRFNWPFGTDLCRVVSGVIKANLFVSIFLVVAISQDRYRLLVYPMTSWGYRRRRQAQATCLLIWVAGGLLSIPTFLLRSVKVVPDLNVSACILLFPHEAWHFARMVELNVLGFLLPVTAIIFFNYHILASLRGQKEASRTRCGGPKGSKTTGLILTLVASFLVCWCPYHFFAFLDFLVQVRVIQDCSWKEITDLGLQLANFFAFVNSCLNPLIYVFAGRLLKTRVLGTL
How it was run: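 CHO K1 cells stably expressing human or rat B1R were loaded with Fluo-4, and Ca^2+ fluorescence was read on a FLIPR. After 10–20 min with test substance, agonist was added at EC80: Lys-Des-Arg^9-bradykinin for hB1R, Des-Arg^9-bradykinin for rB1R. % inhibition is relative to maximal inhibition; IC50 from multiple concentrations, n=2–3, N≥2.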

Row | SMILES | inhibition at 10 µM (human B1R) [%] | inhibition at 10 µM (B1R of the rat) [%]
1 | COc1cc(C)c(S(=O)(=O)N(C)CCOCC(=O)N2CCC(CCCN3CCCC3)(c3cccnc3)CC2)c(C)c1 [Example 13, 4-Methoxy-N,2,6-trimethyl-N-(2-(2-oxo-2-(4-(pyridin-3-yl)-4-(3-(pyrrolidin-1-yl)propyl)piperidin-1-yl)ethoxy)ethyl)benzenesulfonamide] | 97 | 101
2 | O=C(CC1CCCCN1S(=O)(=O)c1cccc(C(F)(F)F)c1)N1CCC(CCCN2CCCC2)(c2cccnc2)CC1 (centres unmarked) [Example 14, 1-(4-(Pyridin-3-yl)-4-(3-(pyrrolidin-1-yl)propyl)piperidin-1-yl)-2-(1-(3-(trifluoromethyl)phenylsulfonyl)piperidin-2-yl)ethanone] | 35 | 64
3 | Cc1cc(S(=O)(=O)N2CCCCC2CCC(=O)N2CCC(CCCN3CCCC3)(c3cccnc3)CC2)c(C)cc1Cl (centres unmarked) [Example 15, 3-(1-(4-Chloro-2,5-dimethylphenylsulfonyl)piperidin-2-yl)-1-(4-(pyridin-3-yl)-4-(3-(pyrrolidin-1-yl)propyl)piperidin-1-yl)propan-1-one] | 84 | 76
4 | COc1cc(C)c(S(=O)(=O)N2CCCCC2COCC(=O)N2CCC(CCCN3CCCC3)(c3cccnc3)CC2)c(C)c1 (centres unmarked) [Example 16, 2-((1-(4-Methoxy-2,6-dimethylphenylsulfonyl)piperidin-2-yl)methoxy)-1-(4-(pyridin-3-yl)-4-(3-(pyrrolidin-1-yl)propyl)piperidin-1-yl)ethanone] | 97 | 102
5 | O=C(CC(NS(=O)(=O)c1ccc2ccccc2c1)c1ccccc1)N1CCC(CCCN2CCCC2)(c2cccnc2)CC1 (centres unmarked) [Example 17, N-(3-Oxo-1-phenyl-3-(4-(pyridin-3-yl)-4-(3-(pyrrolidin-1-yl)propyl)piperidin-1-yl)propyl)naphthalene-2-sulfonamide] | 94 | 81
6 | O=C(COCC1CCc2ccccc2N1S(=O)(=O)c1ccc(Cl)c(Cl)c1)N1CCC(CCCN2CCCC2)(c2cccnc2)CC1 (centres unmarked) [Example 18, 2-((1-(3,4-Dichlorophenylsulfonyl)-1,2,3,4-tetrahydroquinolin-2-yl)methoxy)-1-(4-(pyridin-3-yl)-4-(3-(pyrrolidin-1-yl)propyl)piperidin-1-yl)ethanone] | 62 | 102
7 | Cc1cc(S(=O)(=O)N2CCCCC2CCC(=O)N2CCC(CCCN(C)C)(c3cccnc3)CC2)c(C)cc1Cl (centres unmarked) [Example 19, 3-(1-(4-Chloro-2,5-dimethylphenylsulfonyl)piperidin-2-yl)-1-(4-(3-(dimethylamino)propyl)-4-(pyridin-3-yl)piperidin-1-yl)propan-1-one] | 82 | 98
8 | CN(C)CCCC1(c2cccnc2)CCN(C(=O)CC(NS(=O)(=O)c2ccc3ccccc3c2)c2ccccc2)CC1 (centres unmarked) [Example 20, N-(3-(4-(3-(Dimethylamino)propyl)-4-(pyridin-3-yl)piperidin-1-yl)-3-oxo-1-phenylpropyl)naphthalene-2-sulfonamide] | 57 | 94
9 | CN(C)CCCC1(c2cccnc2)CCN(C(=O)COCC2CCc3ccccc3N2S(=O)(=O)c2ccc(Cl)c(Cl)c2)CC1 (centres unmarked) [Example 21, 2-((1-(3,4-Dichlorophenylsulfonyl)-1,2,3,4-tetrahydroquinolin-2-yl)methoxy)-1-(4-(3-(dimethylamino)propyl)-4-(pyridin-3-yl)piperidin-1-yl)ethanone] | 56 | 98
10 | COc1cc(C)c(S(=O)(=O)N2CCCCC2COCC(=O)N2CCC(CCCN(C)C)(c3cccnc3)CC2)c(C)c1 (centres unmarked) [Example 22, 1-(4-(3-(Dimethylamino)propyl)-4-(pyridin-3-yl)piperidin-1-yl)-2-((1-(4-methoxy-2,6-dimethylphenylsulfonyl)piperidin-2-yl)methoxy)ethanone] | 98 | 102
11 | COc1cc(C)c(S(=O)(=O)N(C)CCOCC(=O)N2CCC(CCCN(C)C)(c3cccnc3)CC2)c(C)c1 [Example 23, N-(2-(2-(4-(3-(Dimethylamino)propyl)-4-(pyridin-3-yl)piperidin-1-yl)-2-oxoethoxy)ethyl)-4-methoxy-N,2,6-trimethylbenzenesulfonamide] | 100 | 101
12 | CN(C)CCCC1(c2cccnc2)CCN(C(=O)CC2CCCCN2S(=O)(=O)c2cccc(C(F)(F)F)c2)CC1 (centres unmarked) [Example 24, 1-(4-(3-(Dimethylamino)propyl)-4-(pyridin-3-yl)piperidin-1-yl)-2-(1-(3-(trifluoromethyl)phenylsulfonyl)piperidin-2-yl)ethanone] | 38 | 60
13 | COc1cc(C)c(S(=O)(=O)N2CCCC[C@H]2COCC(=O)N2CCC(CN3CCCC3)(c3cccnc3)CC2)c(C)c1 [Example 25, (S)-2-((1-(4-Methoxy-2,6-dimethylphenylsulfonyl)piperidin-2-yl)methoxy)-1-(4-(pyridin-3-yl)-4-(pyrrolidin-1-ylmethyl)piperidin-1-yl)ethanone] | 97 | 63

From US8124624B2, “Substituted sulfonamide compounds” (Gruenenthal GmbH, priority 2008, dated 2012)
